How the values were obtained:
Human EP4 [1] = molecular target: T1, Human EP4 (Homo sapiens, UniProt P35408); assay: EP4 agonist activity, CRE-LUC reporter gene in transfected COS-7 cells; type: cell-based
T1 construct: expressed in transfected cells; host or cells: COS-7
Protocol: In brief, human EP4 gene and CRE-LUC reporter gene were transfected into COS-7 cells. The cells were treated with a test compound one day later, and incubated for 3 hr. The cells were washed, a luminescence substrate was added, and the luminescence intensity was measured for the agonist activity.

Human EP2 = molecular target: T2, Human EP2 (Homo sapiens, UniProt P43116); assay: Receptor affinity, tritium-labeled PGE2 binding to membranes of transfected COS-7 cells
T2 construct: expressed in transfected cells; host or cells: COS-7
T2 sequence (P43116 whole entry): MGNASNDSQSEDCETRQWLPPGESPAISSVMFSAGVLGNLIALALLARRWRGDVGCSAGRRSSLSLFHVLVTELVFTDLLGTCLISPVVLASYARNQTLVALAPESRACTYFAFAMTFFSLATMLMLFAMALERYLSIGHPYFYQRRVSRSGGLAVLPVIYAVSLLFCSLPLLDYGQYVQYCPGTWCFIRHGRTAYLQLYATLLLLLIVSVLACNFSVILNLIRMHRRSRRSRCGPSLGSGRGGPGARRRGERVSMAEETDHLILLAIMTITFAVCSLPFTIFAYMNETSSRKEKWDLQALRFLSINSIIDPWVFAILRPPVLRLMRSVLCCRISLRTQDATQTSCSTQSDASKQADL
Protocol: (§1) PG receptor affinity of compound F and compound J of the present invention was evaluated. Compound F used was one synthesized in Example 9, and compound J was prepared by separating and purifying the compound synthesized in Example 14 with a column (the same preparations were used in the following Examples). COS-7 cells were transfected with the genes of mouse EP4, human EP1-4 or human IP to overexpress the receptor and then the cell membranes were collected. […] The dissociation constant Kd value was obtained and inhibition constant Ki value of each test compound was determined in a conventional method.

[2] = tested on: dextran sodium sulfate-induced colitis; assay: Dextran sodium sulfate-induced colitis model in mice (C57BL/6); type: in vivo; settings: C57BL/6 mice, DSS, oral 0.3 mg/kg once a day
Protocol: Female C57BL/6 mice (6 weeks old, Japan SLC) were purchased, acclimated for 1 week and used for the study. Except the normal group, the mice were allowed to freely drink a 3 or 2 w/v% DSS (MP Biochemicals, Lot No. 5653H and 5464H, respectively) solution for 1 week to induce colitis. BPS at a dose of 0.3 mg/kg and compound F at doses of 0.3 and 1 mg/kg were orally administered once a day, daily, from the start day of DSS drinking (day 0) to one day before autopsy (day 9). To the control group was orally administered a solvent (1 vol% ethanol solution) at 10 mL/kg in the same manner. The consistency of the stool was graded from score 0 to 4, with normal (0), partly loose stool (1), loose stool (2) and diarrhea (4). The blood feces was also graded from score 0 to 4, with normal (0), partly blood feces (1), blood feces (2) and blood feces plus proctorrhagia (4). The sum of both grades was defined as the stool score (maximum 8). Furthermore, the length of the large intestine was measured in the same manner as in Example 23. Six to 10 animals were used for each group, and the results are shown in average ± standard deviation.

Human EP1 = molecular target: T3, Human EP1 (Homo sapiens, UniProt P34995); assay: Receptor affinity, tritium-labeled PGE2 binding to membranes of transfected COS-7 cells
T3 construct: expressed in transfected cells; host or cells: COS-7
T3 sequence (P34995 1-402): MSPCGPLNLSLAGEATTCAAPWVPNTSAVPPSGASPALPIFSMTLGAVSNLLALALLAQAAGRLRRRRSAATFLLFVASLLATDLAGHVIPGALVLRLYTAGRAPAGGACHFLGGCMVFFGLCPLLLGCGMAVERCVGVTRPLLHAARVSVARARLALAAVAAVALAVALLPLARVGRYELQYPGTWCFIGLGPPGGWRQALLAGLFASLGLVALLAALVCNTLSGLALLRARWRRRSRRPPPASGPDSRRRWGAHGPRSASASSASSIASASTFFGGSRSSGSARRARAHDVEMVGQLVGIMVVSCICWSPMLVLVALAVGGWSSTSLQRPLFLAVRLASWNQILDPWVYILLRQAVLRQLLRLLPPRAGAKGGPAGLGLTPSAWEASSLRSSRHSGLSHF
Protocol: (§2) PG receptor affinity of compound F and compound J of the present invention was evaluated. Compound F used was one synthesized in Example 9, and compound J was prepared by separating and purifying the compound synthesized in Example 14 with a column (the same preparations were used in the following Examples). COS-7 cells were transfected with the genes of mouse EP4, human EP1-4 or human IP to overexpress the receptor and then the cell membranes were collected. As a labeled ligand, tritium-labeled PGE2 was used for EPs; tritium-labeled iloprost, for IP. The dissociation constant Kd value was obtained and inhibition constant Ki value of each test compound was determined in a conventional method. As a reference control, PGE2 was used for EPs; beraprost sodium (BPS), for IP.

[3] = tested on: blood pressure and heart rate; assay: Effect on blood pressure and heart rate in mice; type: in vivo, ICR mice; settings: intravenous 0.01 mg/5 mL/kg, isoflurane anesthesia
Protocol: Male ICR mice (5 weeks old, Japan SLC) were purchased, acclimated for 6 days and used for the test. The animals were treated and measured under isoflurane inhalation anesthesia (anesthesia introduced at 2.5%, maintained at 1.8-2.1%), while body temperature was kept at 37°C with a Heat Controller (ATC-402, Unique Medical Co., Ltd.). A catheter for administration of test compounds was inserted into the left femoral vein, and another catheter was inserted into the right femoral artery and connected to a pressure transducer to record each parameter of hemodynamics.
Compound F, the carboxylate form of compound F and BPS were intravenously administered at a dose of 0.01 mg/5 mL/kg, and the effect on the mean blood pressure and heart rate was evaluated with computer software for the analysis of hemodynamics (Fluclet, Dainippon Sumitomo Pharma Co., Ltd.). To the control group was intravenously administered a solvent (1.2% ethanol solution) at 5 mL/kg in the same manner. The results are expressed as a ratio of change in each parameter before and after the drug administration. Three to 6 animals were used for each group, and the results were expressed as average ± standard deviation.

[4] = tested on: Human Platelet Aggregation; assay: Inhibitory effect on ADP-induced platelet aggregation in platelet-rich plasma; type: cell-based; settings: ADP 10 µmol/L, geometric mean of three volunteers
Protocol: The inhibitory effect of compounds F and J, and carboxylate forms thereof on platelet aggregation was evaluated. The carboxylate forms were prepared by separating and purifying the compound synthesized in Example 15 with a column. Blood was drawn from 3 healthy volunteers using sodium citrate as an anticoagulant, and platelet-rich plasma was prepared. The platelet-rich plasma was treated with physiological saline or test compounds and, 2 min later, platelet aggregation was induced with adenosine diphosphate (ADP, final concentration 10 µmol/L) and recorded with a platelet aggregation measurement apparatus (nephelometry).

Human IP = molecular target: T4, Human IP (Homo sapiens, UniProt P43119); assay: Receptor affinity, tritium-labeled iloprost binding to membranes of transfected COS-7 cells; settings: COS-7 cell membranes
T4 construct: expressed in transfected cells; host or cells: COS-7
T4 sequence (P43119 whole entry): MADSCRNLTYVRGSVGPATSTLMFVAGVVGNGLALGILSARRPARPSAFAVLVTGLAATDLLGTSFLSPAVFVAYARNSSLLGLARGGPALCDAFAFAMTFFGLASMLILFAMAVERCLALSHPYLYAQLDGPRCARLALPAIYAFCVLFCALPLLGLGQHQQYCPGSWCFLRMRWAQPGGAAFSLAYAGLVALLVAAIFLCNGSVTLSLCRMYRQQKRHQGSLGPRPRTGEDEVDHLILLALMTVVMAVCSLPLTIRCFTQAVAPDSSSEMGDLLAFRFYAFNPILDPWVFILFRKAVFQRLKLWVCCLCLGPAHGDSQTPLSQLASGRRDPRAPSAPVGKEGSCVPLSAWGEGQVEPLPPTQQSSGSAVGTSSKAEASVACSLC
Protocol: as §2

Human EP3 = molecular target: T5, Human EP3 (Homo sapiens, UniProt P43115); assay: Receptor affinity, tritium-labeled PGE2 binding to membranes of transfected COS-7 cells
T5 construct: expressed in transfected cells; host or cells: COS-7
T5 sequence (P43115 1-390): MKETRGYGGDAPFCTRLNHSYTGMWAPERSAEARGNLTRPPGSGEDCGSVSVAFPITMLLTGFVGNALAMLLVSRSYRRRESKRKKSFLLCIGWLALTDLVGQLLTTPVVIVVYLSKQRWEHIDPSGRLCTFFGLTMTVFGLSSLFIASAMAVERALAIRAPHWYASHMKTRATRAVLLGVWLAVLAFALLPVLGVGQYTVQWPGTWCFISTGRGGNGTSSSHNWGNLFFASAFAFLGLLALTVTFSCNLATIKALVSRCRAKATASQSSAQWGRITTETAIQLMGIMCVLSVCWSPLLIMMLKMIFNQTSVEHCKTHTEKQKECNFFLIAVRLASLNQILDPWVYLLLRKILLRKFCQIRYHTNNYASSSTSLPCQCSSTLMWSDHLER
Protocol: (§3) COS-7 cells were transfected with the genes of mouse EP4, human EP1-4 or human IP to overexpress the receptor and then the cell membranes were collected. […] The dissociation constant Kd value was obtained and inhibition constant Ki value of each test compound was determined in a conventional method.

Human EP4 [5] = molecular target: T1, Human EP4; assay: as above
Protocol: as §3

IL-2 = assay: Suppressive effect on cytokine production, CD4 positive T cells stimulated with anti-CD3 and anti-CD28 antibody, ELISA; type: cell-based; settings: human CD4 positive T cells, anti-CD3/anti-CD28, 24 hr; geometric mean of three volunteers
Protocol: (§4) Blood was collected from 3 healthy volunteers, and CD4 positive T cells were prepared. […] In both cases, the test compound was added 30 min before stimulation.

[6] = Plasma pharmacokinetics after intravenous administration to rats; type: in vivo; settings: male, rat
Protocol: To verify the in vivo metabolic stability of the compound of the present invention, plasma pharmacokinetics was evaluated after intravenous administration to rats. Male rats (6 weeks old, body weight 160 - 180 g) were acclimated for 1 week, and the animals diagnosed healthy were used. A mixture of compound F and compound J of the present invention described in Table 1 (F:J = 52:41), and a mixture of carboxylate forms of compound F and compound J (F:J = 54:34), and compound F (synthesized in Example 9) were dissolved in a small amount of ethanol and physiological saline was added to prepare test compound solutions. The test compound solutions were instantaneously administered intravenously at 1 mL/kg from the femoral vein of non-fasting rats under light ether anesthesia. Venous blood was drawn from the tail vein 5, 15, 30, 45, 60, 90 and 120 min after administration. The blood was mixed with heparin and centrifuged (3000 rpm, 4°C, 15 min) to obtain plasma. The plasma compound concentration was determined by the internal standard method using LC-MS/MS. The determination range by this method was from 0.1 to 100 ng/mL. The compound concentrations obtained from each rat were analyzed in a model-independent way using a pharmacokinetics analysis software WinNonlin (ver.3.3), and average ± standard deviation of 3 animals for each group was obtained.

IP-10 = assay: Suppressive effect on cytokine production, whole blood stimulated with lipopolysaccharide, ELISA; type: cell-based; settings: human whole blood, indometacin, 48 hr, geometric mean of three volunteers
Mouse EP4 = molecular target: T6, Mouse EP4 (Mus musculus, UniProt P32240); assay: Receptor affinity, tritium-labeled PGE2 binding to membranes of transfected COS-7 cells
T6 construct: expressed in transfected cells; host or cells: COS-7
T6 sequence (P32240 whole entry): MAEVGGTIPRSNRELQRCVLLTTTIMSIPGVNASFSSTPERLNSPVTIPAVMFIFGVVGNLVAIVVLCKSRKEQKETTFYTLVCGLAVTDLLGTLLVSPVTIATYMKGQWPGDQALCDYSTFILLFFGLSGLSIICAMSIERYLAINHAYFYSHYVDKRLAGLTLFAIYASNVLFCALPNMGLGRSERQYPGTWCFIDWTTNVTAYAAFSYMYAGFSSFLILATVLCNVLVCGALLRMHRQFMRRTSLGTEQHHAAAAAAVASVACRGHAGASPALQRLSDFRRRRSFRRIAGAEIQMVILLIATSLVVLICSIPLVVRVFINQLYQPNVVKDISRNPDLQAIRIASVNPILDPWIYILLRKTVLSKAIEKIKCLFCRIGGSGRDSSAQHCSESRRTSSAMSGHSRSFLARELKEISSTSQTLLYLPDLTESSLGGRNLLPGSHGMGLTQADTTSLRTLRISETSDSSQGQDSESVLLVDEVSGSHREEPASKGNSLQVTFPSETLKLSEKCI
Protocol: as §1

[7] = In vitro metabolic stability: β-oxidation reaction in rat liver mitochondria fraction; type: in vitro ADME; settings: parent compound after NADPH-independent β-oxidation reaction, 37°C, 30 min, tested as isomer mixtures, average ± SD of 3 experiments
Protocol: A mixture of the compound F and compound J of the present invention described in Table 1 (F:J = 52:41, synthesized in Example 14), and a mixture of compounds wherein the tetrazole groups at C-1 of compound F and compound J are respectively substituted by carboxylic acid (referred to as carboxylate form, F:J = 54:34, synthesized in Example 15) were tested.
First, a mitochondria fraction was prepared from the rat liver according to the following Reference A. Then, in reference to the method of […] et al. described in the following References B and C, an NADPH-independent β oxidation reaction was studied. The reaction was carried out at 37°C for 30 min, and stopped with a methanol solution containing a suitable internal standard substance. Each compound was quantified by the internal standard method using a high performance liquid chromatography mass spectrometry apparatus (LC-MS/MS). The compound residual ratio after metabolic reaction of compounds F, J and each carboxylate form thereof in rat mitochondria fraction is shown in the following Table 2 in average ± standard deviation of 3 experiments. Table 2 Residual Ratio of Parent Compound after β-Oxidation Reaction

TNF-α = assay: Suppressive effect on cytokine production, CD4 positive T cells stimulated with anti-CD3 and anti-CD28 antibody, ELISA; type: cell-based; settings: human CD4 positive T cells, anti-CD3/anti-CD28, 24 hr; geometric mean of three volunteers
Protocol: as §4

T1 sequence (P35408 whole entry): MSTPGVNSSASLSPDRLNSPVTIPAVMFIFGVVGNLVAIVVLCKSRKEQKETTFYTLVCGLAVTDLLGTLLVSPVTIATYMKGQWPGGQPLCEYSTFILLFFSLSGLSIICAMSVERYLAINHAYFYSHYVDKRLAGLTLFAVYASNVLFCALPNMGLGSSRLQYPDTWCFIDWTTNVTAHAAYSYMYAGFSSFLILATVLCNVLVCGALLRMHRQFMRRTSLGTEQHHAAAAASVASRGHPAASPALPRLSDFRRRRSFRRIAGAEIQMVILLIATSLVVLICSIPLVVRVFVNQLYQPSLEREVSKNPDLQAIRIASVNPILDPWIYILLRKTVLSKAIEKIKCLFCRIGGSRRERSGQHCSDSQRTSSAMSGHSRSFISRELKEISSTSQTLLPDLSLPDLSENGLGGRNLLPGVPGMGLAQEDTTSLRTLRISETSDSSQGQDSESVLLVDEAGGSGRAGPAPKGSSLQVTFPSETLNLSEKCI

For `CC#CCC(C)[C@H](O)/C=C/[C@@H]1[C@H]2c3cccc(CCCC(=O)O)c3O[C@H]2C[C@H]1O` (mixture of isomers) [BPS, beraprost sodium, reference compound], the EC50 (Human EP4 [1]) was > 1000 nM, the Ki (Human EP2) was 4990 nM and the “effect on stool score” value [2] was “not effective, but rather showed a tendency toward aggravation of the stool score”. For the same compound, the “effect on the shortening of the large intestine” value [2] was “no effect on the shortening of the large intestine”, the Ki (Human EP1) was 942 nM and the “effect on heart rate” value [3] was “on the increase and remained high even after 10 min”. For the same compound, the “maximum decrease ratio of mean blood pressure” value [3] was 38%, the IC50 [4] was 36 nM and the Ki (Human IP) was 160 nM. It also gave a Ki (Human EP3) of 946 nM and a Ki (Human EP4 [5]) of 6150 nM.
In the case of `CCCCC[C@H](O)/C=C/[C@H]1[C@H](O)CC(=O)[C@@H]1C/C=C\CCCC(=O)O` [PGE2, reference compound], the Ki (Human EP1) is reported as 2.9 nM and the IC50 (IL-2) is reported as 0.062 nM.
Compound `Cc1cccc([C@H](C)[C@H](O)/C=C/[C@@H]2[C@@H]3[C@H](C[C@H]2O)O/C(=C\CCCc2nnn[nH]2)C3(F)F)c1` [Compound J, 4-[(Z)-(1S,5R,6R,7R)-6-[(1E,3R,4S)-3-hydroxy-4-(m-tolyl)-1-pentenyl]-7-hydroxy-2-oxa-4,4-difluoro-bicyclo[3.3.0]octan-3-ylidene]-1-(tetrazol-5-yl)butane] has a half-life ([6]; iv, 50 ug/kg) of 1.28 ± 0.317 h, a half-life ([6]; rats, intravenous, summary of Table 3) of 1 to 2 h and an IC50 (IP-10) of 102 nM. The EC50 (Human EP4 [1]) was 440 nM, the Ki (Mouse EP4) was 590 nM and the Ki (Human EP2) was 5400 nM. For the same compound, the Ki (Human EP1) was 4600 nM, the Residual ratio [7] was 90.1±6.9% and the IC50 (IL-2) was 64 nM. For the same compound, the IC50 (TNF-α) was 89.5 nM, the IC50 [4] was 2720 nM and the Ki (Human IP) was 3400 nM. For the same compound, the Ki (Human EP3) was 1500 nM, the Ki (Human EP4 [5]) was 83 nM and the “affinity for binding to human EP4 higher than that to human IP” value (Human EP4 [5]; ratio of Ki values) was 40 fold.

Source: patent publication EP2545917B1, “NOVEL EP4 AGONIST” (Kaken Pharmaceutical Co., Ltd., priority 2010, dated 2011)
